Results reported in patent US20110201023A1, “MANNOSE 6-PHOSPHATE-BINDING ANTIBODIES AND THEIR USES” (UNIVERSITATSKLINKUM HAMBURGEPPENDORF, priority 2008, published 2011).

Key:
scFv M6P-1 = experiment: ELISA inhibition study: binding of scFv M6P-1 to immobilized PMP-BSA; parameters: species or system rabbit; conditions: for IC50: scFv 0.6 μg/ml preincubated 1 h at 37° C. with 0.01 to 100 mM inhibitor, 45 pmol/cup PMP-BSA, read-out: 50% inhibition (IC50 value) of scFv M6P-1 binding to PMP-BSA; for inhibition of the binding of scFv M6P-1 to PMP-BSA: even at high concentrations (0.01 to 100 mM tested)
Method: ELISA was performed according to the protocol published in Phage-Display: A Laboratory Manual, Cold Spring Harbor Laboratory Press, New York (2001), protocol 19.8, pages 19.29-19.31. For ELISA using monoclonal phage or soluble scFv, PMP-BSA was immobilized by addition of 2.25 pmol neoglycoconjugate (45 pmol PMP ligand, solution in 50 mM carbonate buffer, pH 9.2) to each cup of the ELISA plates (MaxiSorp, Nunc) and overnight incubation at 4° C. Phages were detected using an anti-M13 monoclonal antibody (mAb) HRP-conjugate (GE Healthcare, Freiburg, Germany) and diammonium 2,2′-azino-bis(3-ethylbenzothiazoline-6-sulfonate (AzBTS-(NH4)2, Sigma-Aldrich) as substrate. For scFv-ELISA against PMP-BSA, purified scFv was added at a starting concentration of 5 μg/ml. Bound scFv was detected by incubation with anti-c-myc mAb (gift from Dr. C. R. MacKenzie, NRC of Canada, Ottawa, Canada) and HRP-conjugated goat-anti-mouse IgG H+L (Dianova, Hamburg, Germany). For ELISA inhibition studies, 45 pmoles PMP-BSA were immobilized on ELISA plates. Monomeric scFv M6P-1 was freshly prepared by gelfiltration (see above). Antibody fragment scFv (0.6 μg/ml final concentration) was preincubated for 1 h at 37° C. with or without 0.01 to 100 mM of mannose, glucose, glucose-6-phosphate (Glc6P), Fru1P, or Man6P. 50 μl scFv M6P-1 were added to PMP-BSA (45 pmol/cup ligand concentration). Bound scFv M6P-1 was quantified after incubation (i) with an antibody directed against the c-myc tag of the antibody scFv M6P-1 and (ii) a HRP-conjugated goat-anti-mouse H/L antibody. The […] reaction was measured spectrophotometrically at OD405. All data were measured in quadruplicates and the standard deviation from the mean is indicated. The data were analyzed using Origin version 6.0 software (MicroCal, Northampton, USA) and fitted to a 4 parameter logistic function. The data obtained for inhibition by Man6P and Fru1P were globally fitted to the four replicate data sets, each separately.

[1] = tested on: scFv M6P-1 conjugated beads / [125I]ASA (human arylsulfatase A); experiment: Immunoprecipitation of [125I]ASA with scFv M6P-1 conjugated beads; assay type: binding
Method: Monomeric or dimeric scFv M6P-1 (about 1 mg/ml in PBS, pH 7.2) isolated by gel filtration (see above) was chemically immobilized to AminoLink Plus Coupling gel beads (Pierce, USA) following the suppliers instructions (1 mg scFv M6P-1 was coupled to 2 ml of settled beads). Human arylsulfatase A (ASA)(kindly provided by Dr. […]; Institute for Biochemistry, University of Bielefeld, Germany) was purified by affinity chromatography from media of BHK cells which overexpress the enzyme as described by Sommerlade et al. (1994) Biochem. J. 297, 123-130 and iodinated with IODO-GEN (Pierce) according to the manufacturer's instructions yielding [^125I]ASA with a specific activity of 2 μCi/μg. [^125I]ASA (400,000 cpm) was incubated with 50 μl scFv M6P-1 conjugated beads in 10 mM phosphate buffered saline pH 7.4 containing 0.05% Triton X-100 in a final volume of 0.5 ml in the absence or presence of increasing concentrations of Man6P for 10 h at 4° C. Subsequently, the beads were spun down at 1,200×g for 20 sec, and the supernatant was removed. The beads were washed three times with ice-cold binding buffer, twice with 1 mM phosphate buffered saline pH 7.4, and solubilized in SDS sample buffer. After removal of the beads, the supernatants were separated by SDS-PAGE (10% acrylamide), and the [^125I]ASA was visualized by autoradiography using Kodak films. The intensity of the [^125I]-labeled polypeptides was evaluated by densitometry. Alternatively, the [^125I]-labeled polypeptides were excised from the dried gel and counted in a γ-counter (Wizard 1470, Wallac, Turku, Finland).

[2] = Isothermal titration microcalorimetry; conditions: dimeric scFv M6P-1 in PBS pH 7.2; 10 mM Man6P injected; read-out: Kd for the binding of scFv M6P-1 to Man6P
Method: The comparison of IC50 values allows the ranking of different ligands according to their relative affinities, however, the absolute affinities in terms of Kd can not be obtained. Therefore, isothermal titration microcalorimetry measurements using Man6P as a ligand were performed. Purified dimeric scFv M6P-1 obtained after gel filtration (both a monomer and a dimer fraction are obtained) was concentrated in Centriprep YM-10 (Millipore) to a final concentration of 2.7 mg/ml in PBS, pH 7.2 and dialysed for 1 h at 20° C. against 500 ml of PBS. The same dialysis buffer was used for preparation of a 10 mM solution of Man6P (Na^+ salt, Sigma-Aldrich). Microcalorimetric experiments were performed on an MCS isothermal titration calorimeter (Microcal Inc., Northampton, Mass., USA). The microcalorimeter cell was filled with the antibody solution (volume=1.5 ml) and Man6P in dialysis buffer loaded into the syringe of the microcalorimeter. Both solutions were thoroughly degassed prior to loading. After temperature equilibration, the ligand was injected into the cell in 4 μl portions and the evolved heat measured with the first injection (1 μl) not considered for data analysis. […] Dissociation constants were determined using the MicroCal Origin version 2.9 analysis software and non-linear least squares curve fitting (1 set of binding sites).

PMP-BSA = experiment: Phage ELISA against PMP-BSA; assay type: binding; conditions: 1:3 (v/v) dilutions of phage
Method: The reactivity of the enriched polyclonal phage was tested in an ELISA checkerboard titration against different concentrations of PMP-BSA (3-100 pmol/cup calculated for PMP concentration). At 50 pmol/cup reactivity of the polyclonal phage was observed selectively for PMP-BSA but not for BSA. BstOI (Promega GmbH, Germany) restriction digest of 20 colony PCR products indicated the presence of 7 different clones (4× type A, 10× type B, 2× type C and 1× types D-G). Twelve colonies representing the different types of sequences (5× type B, 2× type A, 1× each of types C-G) were selected for phage production and 1:3 (v/v) dilutions of phage were tested in ELISA against PMP-BSA. […]
ELISA was performed according to the protocol published in Phage-Display: A Laboratory Manual, Cold Spring Harbor Laboratory Press, New York (2001), protocol 19.8, pages 19.29-19.31. […] Phages were detected using an anti-M13 monoclonal antibody (mAb) HRP-conjugate (GE Healthcare, Freiburg, Germany) and diammonium 2,2′-azino-bis(3-ethylbenzothiazoline-6-sulfonate (AzBTS-(NH4)2, Sigma-Aldrich) as substrate. For scFv-ELISA against PMP-BSA, purified scFv was added at a starting concentration of 5 μg/ml. Bound scFv was detected by incubation with anti-c-myc mAb (gift from Dr. C. R. MacKenzie, NRC of Canada, Ottawa, Canada) and HRP-conjugated goat-anti-mouse IgG H+L (Dianova, Hamburg, Germany).

Work on `O=P(O)(O)OC[C@@]1(O)OC[C@@H](O)[C@@H](O)[C@@H]1O` [Fru1P, β-D-fructopyranose-1-phosphate] yielded an IC50 (scFv M6P-1) of 1100 µM.

With `O=C[C@H](O)[C@@H](O)[C@H](O)[C@H](O)COP(=O)(O)O` [Glc6P, glucose 6-phosphate] the “inhibition of the binding of scFv M6P-1 to PMP-BSA” value (scFv M6P-1) was “Neither” and the “effect on binding of [125I]-ASA to the antibody beads” value ([1]; 5 mM) was “no effect”.

With `O=C[C@@H](O)[C@@H](O)[C@H](O)[C@H](O)COP(=O)(O)O` [Man6P, mannose 6-phosphate] the IC50 (scFv M6P-1) was 2300 µM, the “inhibition of binding of [125I]-ASA to the antibody beads” value ([1]; Man6P in a concentration of more than 2.5 mM) was “completely inhibited” and the Ki ([1]; calculated from densitometric evaluation of autoradiographs or radioactivity in excised bands) was 100 µM.

For `O=C[C@@H](O)[C@@H](O)[C@H](O)[C@H](O)CO` [mannose], the “inhibition of the binding of scFv M6P-1 to PMP-BSA” value (scFv M6P-1) was “Neither”.

B1: scFv M6P-1: recombinant rabbit single-chain antibody fragment which specifically binds mannose 6-phosphate; VL SEQ ID NO:7, VH SEQ ID NO:8 (antibody, listed as Oryctolagus cuniculus, V domains shown)
VH: QSVKESEGDLVKPGASLTLTCKASGFDFTWYTMNWVRQAPGKGLEWIACIGAGVYGSNYYASWAKGRFTISKASSTTVTLQMTSLTVADTATYFCARDGINGGYDIWGPGTLVTVSS
VL: ELVMTQTESPVSAAVGGTVTIKCQSSQSVYNNRLAWYQQKPGQRPKLLIYSASTLASGVPSRFKGSGSGTQFTLTISDLEWGDAATYYCHGGYRSNDDRYAFSGGTELEIL
modifications: scFv linker not given
With B1 the “total offered [125I]-ASA bound specifically to the scFv M6P-1 conjugated beads” value ([1]; 10 h at 4° C., absence of Man6P) was 20-25%, the Kd [2] was 28 µM and the “reactivity of monoclonal phage in ELISA against PMP-BSA” value (PMP-BSA) was “reacted”.
